Measurements published in patent US20130116263A1, “PAK INHIBITORS FOR THE TREATMENT OF CELL PROLIFERATIVE DISORDERS” (AFRAXIS, INC., priority 2011, published 2013).

Assays:
Type in all cases: biochemical
[1] = molecular target: T1, PAK1 (Homo sapiens, UniProt Q13153); test: Additional in vitro PAK1 inhibition assay at ATP 10 uM and 1 mM
Method: (§1) Similar in vitro PAK1 and PAK-4 inhibition assays are conducted in compounds for the treatment of cancer, but under ATP concentrations of 10 uM and 1 mM.

[2] = molecular target: T2, PAK4 (Homo sapiens, UniProt O96013); test: Additional in vitro PAK-4 inhibition assay at ATP 10 uM and 1 mM; conditions: 10 μM ATP; read-out: PAK4 IC50 (10 μM ATP)
T2 sequence (O96013 whole entry): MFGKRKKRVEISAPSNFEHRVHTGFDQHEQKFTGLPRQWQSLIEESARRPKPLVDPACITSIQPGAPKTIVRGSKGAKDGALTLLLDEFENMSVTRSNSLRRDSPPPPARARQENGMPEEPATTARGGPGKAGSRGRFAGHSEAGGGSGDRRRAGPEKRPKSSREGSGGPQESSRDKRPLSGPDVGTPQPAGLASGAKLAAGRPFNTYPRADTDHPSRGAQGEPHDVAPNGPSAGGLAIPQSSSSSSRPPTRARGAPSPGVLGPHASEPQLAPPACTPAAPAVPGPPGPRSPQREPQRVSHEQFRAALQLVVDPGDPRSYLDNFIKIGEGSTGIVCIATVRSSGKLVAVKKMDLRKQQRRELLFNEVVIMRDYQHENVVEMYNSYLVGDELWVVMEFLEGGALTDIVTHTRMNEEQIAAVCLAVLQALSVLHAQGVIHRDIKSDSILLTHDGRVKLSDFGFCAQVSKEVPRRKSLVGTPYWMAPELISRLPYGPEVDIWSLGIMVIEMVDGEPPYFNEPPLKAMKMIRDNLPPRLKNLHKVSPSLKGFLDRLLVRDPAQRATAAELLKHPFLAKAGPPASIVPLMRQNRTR
Method: as §1

[3] = molecular target: T1, PAK1; test: In vitro PAK inhibition assay (Z'-LYTE, SelectScreen), PAK1; conditions: read-out: PAK1 IC50
How it was run: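 The PAK1 reaction on Ser/Thr 19 peptide runs 60 min at room temperature in 50 mM HEPES pH 7.5 with 10 mM MgCl2, 1 mM EGTA, 0.01% BRIJ-35; Z'-LYTE fluorescence read after 60 min development.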

[4] = molecular target: T2, PAK4; test: In vitro PAK inhibition assay (Z'-LYTE, SelectScreen), PAK4
How it was run: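 Z'-LYTE FRET assay with 0.1-0.75 ng PAK-4 and 2 μM Ser/Thr 20 peptide in 50 mM HEPES pH 7.5, 10 mM MgCl2, 1 mM EGTA, 0.01% BRIJ-35, 1% DMSO; ATP near apparent Km. 1 h kinase reaction at room temperature, then 1 h development; IC50 from 10-point 3-fold titrations fitted to a sigmoidal dose-response.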

[5] = molecular target: PAK3 (Homo sapiens, UniProt O75914); test: In vitro PAK inhibition assay (Z'-LYTE, SelectScreen), PAK3; conditions: read-out: PAK3 IC50
Chain of PAK3 (O75914 1-544 isoform O75914-2): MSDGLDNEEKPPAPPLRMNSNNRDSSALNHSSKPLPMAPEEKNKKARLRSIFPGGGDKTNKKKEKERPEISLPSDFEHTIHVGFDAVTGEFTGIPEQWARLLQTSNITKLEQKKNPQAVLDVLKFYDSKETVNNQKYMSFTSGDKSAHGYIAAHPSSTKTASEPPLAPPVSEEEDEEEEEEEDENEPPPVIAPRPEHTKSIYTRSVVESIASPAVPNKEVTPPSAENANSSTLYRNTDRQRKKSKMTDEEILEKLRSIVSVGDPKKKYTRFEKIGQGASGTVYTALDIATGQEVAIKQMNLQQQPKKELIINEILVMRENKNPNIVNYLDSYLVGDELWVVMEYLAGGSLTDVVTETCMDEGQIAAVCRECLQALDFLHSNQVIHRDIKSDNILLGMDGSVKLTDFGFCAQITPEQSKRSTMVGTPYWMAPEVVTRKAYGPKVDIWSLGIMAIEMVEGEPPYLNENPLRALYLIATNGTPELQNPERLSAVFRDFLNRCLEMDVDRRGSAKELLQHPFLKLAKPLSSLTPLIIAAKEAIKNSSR
How it was run: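 Z'-LYTE FRET format: PAK3 with Ser/Thr 20 peptide in 50 mM HEPES pH 7.5, 0.01% BRIJ-35, 10 mM MgCl2, 1 mM EGTA, 1% DMSO final. Kinase reaction 60 min at room temperature, then 60 min development and fluorescence read.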

[6] = molecular target: PAK2 (PAK65) (Homo sapiens, UniProt Q13177); test: In vitro PAK inhibition assay (Z'-LYTE, SelectScreen), PAK2; conditions: read-out: PAK2 IC50
Chain of PAK2 (PAK65) (Q13177 whole entry): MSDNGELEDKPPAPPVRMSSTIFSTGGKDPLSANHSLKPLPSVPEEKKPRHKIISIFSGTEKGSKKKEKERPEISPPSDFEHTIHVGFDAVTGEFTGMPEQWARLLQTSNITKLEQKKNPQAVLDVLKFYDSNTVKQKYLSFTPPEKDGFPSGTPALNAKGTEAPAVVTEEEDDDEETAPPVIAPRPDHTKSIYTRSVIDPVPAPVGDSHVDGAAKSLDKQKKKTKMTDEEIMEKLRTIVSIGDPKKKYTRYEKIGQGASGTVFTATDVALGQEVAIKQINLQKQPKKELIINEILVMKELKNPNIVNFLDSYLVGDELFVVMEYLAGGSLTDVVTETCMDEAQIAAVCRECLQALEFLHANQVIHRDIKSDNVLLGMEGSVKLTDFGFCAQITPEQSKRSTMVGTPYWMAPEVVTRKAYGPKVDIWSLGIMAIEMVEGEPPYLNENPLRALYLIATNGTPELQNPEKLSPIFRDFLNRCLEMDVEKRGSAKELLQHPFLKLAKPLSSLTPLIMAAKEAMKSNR
How it was run: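 Z'-LYTE FRET readout using Ser/Thr 20 peptide (2 μM) with 0.29–6 ng PAK2 in 50 mM HEPES pH 7.5, 0.01% BRIJ-35, 10 mM MgCl2, 1 mM EGTA, 1% DMSO. Reaction and development each ran 60 min at room temperature.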

[7] = 10 μM ATP, read-out: PAK1 IC50 (10 μM ATP)
[8] = 1 mM ATP, read-out: PAK1 IC50 (1 mM ATP)

T1 sequence (Q13153 whole entry): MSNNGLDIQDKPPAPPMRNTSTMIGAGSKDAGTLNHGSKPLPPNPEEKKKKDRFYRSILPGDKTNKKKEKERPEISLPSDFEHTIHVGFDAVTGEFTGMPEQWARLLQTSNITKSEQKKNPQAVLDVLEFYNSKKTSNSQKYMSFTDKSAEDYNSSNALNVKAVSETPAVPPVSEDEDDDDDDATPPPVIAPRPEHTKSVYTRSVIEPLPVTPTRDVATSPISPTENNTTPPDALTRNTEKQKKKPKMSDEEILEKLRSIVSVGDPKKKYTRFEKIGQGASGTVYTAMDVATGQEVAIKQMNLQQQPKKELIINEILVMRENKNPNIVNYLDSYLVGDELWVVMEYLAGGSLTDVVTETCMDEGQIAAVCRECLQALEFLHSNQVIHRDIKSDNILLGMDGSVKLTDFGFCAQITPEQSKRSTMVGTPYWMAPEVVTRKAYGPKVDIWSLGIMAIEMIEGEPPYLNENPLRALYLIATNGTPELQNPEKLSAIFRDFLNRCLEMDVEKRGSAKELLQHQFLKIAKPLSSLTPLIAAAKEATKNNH

IC50 [1, 7]	IC50 [1, 8]	IC50 [2]	IC50 [3]	IC50 [4]	IC50 [5]	IC50 [6]	Compound
500 to 5000 nM	≥ 5000 nM	≥ 5000 nM					CCO[C@H]1COC[C@@H]1Nc1ncc2cc(-c3ccc(-c4noc(C)n4)cc3Cl)c(=O)n(CC)c2n1
< 50 nM	500 to 5000 nM	≥ 5000 nM					Cc1nc(-c2ccc(-c3cc4cnc(NC5CCOCC5)nc4n(CCC4CCNCC4)c3=O)c(Cl)c2)no1 [drawing 343]
50 to 500 nM	≥ 5000 nM	≥ 5000 nM					Cc1nc(-c2ccc(-c3cc4cnc(NC5CCOCC5)nc4n(CC(=O)NCc4ccncc4)c3=O)c(Cl)c2)no1 [drawing 348]
50 to 500 nM	≥ 5000 nM	≥ 5000 nM					Cc1nc(-c2ccc(-c3cc4cnc(NC5CCOCC5)nc4n(CC(=O)NC4CCCNC4)c3=O)c(Cl)c2)no1 (centres unmarked)
50 to 500 nM	≥ 5000 nM	≥ 5000 nM					CCn1c(=O)c(-c2ccc(-c3noc(C)n3)cc2Cl)cc2cnc(NCCCO)nc21
50 to 500 nM	≥ 5000 nM	≥ 5000 nM					Cc1nc(-c2ccc(-c3cc4cnc(NC5CCOCC5)nc4n(CC(=O)N4CCCC(CN)C4)c3=O)c(Cl)c2)no1 (centres unmarked)
500 to 5000 nM	≥ 5000 nM	≥ 5000 nM					Cc1nc(-c2ccc(-c3cc4cnc(NC5CCOCC5)nc4n(C4CCNC4)c3=O)c(Cl)c2)no1 (centres unmarked)
500 to 5000 nM	≥ 5000 nM	≥ 5000 nM					CCn1c(=O)c(-c2ccc(-c3noc(C)n3)cc2Cl)cc2cnc(NCCCOC)nc21
500 to 5000 nM	≥ 5000 nM	≥ 5000 nM					CCn1c(=O)c(-c2ccc(-c3noc(C)n3)cc2Cl)cc2cnc(NCC(C)(C)O)nc21
500 to 5000 nM	≥ 5000 nM	≥ 5000 nM					Cc1nc(-c2ccc(-c3cc4cnc(NC5CCOCC5)nc4n(CC(=O)NC4CCNCC4)c3=O)c(Cl)c2)no1
50 to 500 nM	≥ 5000 nM	≥ 5000 nM					Cc1nc(-c2ccc(-c3cc4cnc(NC5CCOCC5)nc4n(Cc4ccc5c(c4)CNC5)c3=O)c(Cl)c2)no1
			50 to 500 nM	> 5000 nM	500 to 5000 nM	500 to 5000 nM	CCn1c(=O)c(-c2ccc(-c3cccnc3C)cc2Cl)cc2cnc(NC3CCOCC3)nc21 [Example 45]
			500 to 5000 nM	> 5000 nM	500 to 5000 nM	500 to 5000 nM	CCn1c(=O)c(-c2ccc(-c3nccnc3C)cc2Cl)cc2cnc(NC3CCNCC3)nc21 [Example 79]
			50 to 500 nM	> 5000 nM	500 to 5000 nM	50 to 500 nM	Cc1cncc(-c2ccc(-c3cc4cnc(N[C@@H]5CCOC5)nc4n(CCN4CCCC4)c3=O)c(Cl)c2)n1 [Example 104]
			50 to 500 nM	> 5000 nM	50 to 500 nM	50 to 500 nM	CCn1c(=O)c(-c2ccc(-c3noc(C)n3)cc2Cl)cc2cnc(N[C@H]3CC[C@H](N)CC3)nc21 [Example 94]
			50 to 500 nM	> 5000 nM	500 to 5000 nM	50 to 500 nM	CCn1c(=O)c(-c2ccc(-c3nccnc3C)cc2Cl)cc2cnc(NC3CCNC3)nc21 (centres unmarked) [Example 83]
			50 to 500 nM	> 5000 nM	50 to 500 nM	< 50 nM	CCn1c(=O)c(-c2ccc(-c3nccnc3C)cc2Cl)cc2cnc(NC3CCOC(C)C3)nc21 (centres unmarked) [Example 32]
			500 to 5000 nM	> 5000 nM	500 to 5000 nM	50 to 500 nM	CCn1c(=O)c(-c2ccc(-c3nccnc3C)cc2Cl)cc2cnc(NC3CCN(C(C)=O)CC3)nc21 [Example 80]
			< 50 nM	> 5000 nM	< 50 nM	< 50 nM	CCn1c(=O)c(-c2ccc(-c3cncc(C)n3)cc2Cl)cc2cnc(NCCC3CCNCC3)nc21 [Example 135]

IC50 [1, 7]	IC50 [1, 8]	IC50 [2]	IC50 [3]	IC50 [4]	IC50 [5]	IC50 [6]	Compound
			50 to 500 nM	> 5000 nM	50 to 500 nM	50 to 500 nM	CCn1c(=O)c(-c2ccc(-c3nccnc3C)cc2Cl)cc2cnc(NC3CCOCC3)nc21 [Example 2]
			50 to 500 nM	> 5000 nM	50 to 500 nM	50 to 500 nM	CCNc1ncc2cc(-c3ccc(-c4nccnc4C)cc3Cl)c(=O)n(CC)c2n1 [Example 6]
			500 to 5000 nM	> 5000 nM	> 5000 nM	50 to 500 nM	CCn1c(=O)c(-c2ccc(-c3ccc(C)nc3)cc2Cl)cc2cnc(N[C@@H]3CCOC3)nc21 [Example 56]
			< 50 nM	> 5000 nM	50 to 500 nM	< 50 nM	CCn1c(=O)c(-c2cc(C)c(-c3cncc(C)n3)cc2Cl)cc2cnc(N[C@H]3CCOC3)nc21 [Example 72]
			< 50 nM	> 5000 nM	50 to 500 nM	< 50 nM	CCn1c(=O)c(-c2ccc(-c3noc(C)n3)cc2Cl)cc2cnc(NCCC3CCN(C)CC3)nc21 [Example 93]
			50 to 500 nM	> 5000 nM	50 to 500 nM	50 to 500 nM	Cc1cncc(-c2ccc(-c3cc4cnc(N[C@H]5CCOC5)nc4n(C4CCNCC4)c3=O)c(Cl)c2)n1 [Example 106]
			500 to 5000 nM	> 5000 nM	500 to 5000 nM	500 to 5000 nM	CCn1c(=O)c(-c2ccc(-c3nccnc3C)cc2Cl)cc2cnc(NCCN(C)C)nc21 [Example 13]
			50 to 500 nM	> 5000 nM	50 to 500 nM	< 50 nM	CCn1c(=O)c(-c2ccc(-c3nccnc3C)cc2Cl)cc2cnc(NC3CCNC(=O)C3)nc21 (centres unmarked) [Example 33]
			50 to 500 nM	> 5000 nM	50 to 500 nM	50 to 500 nM	Cc1nccnc1-c1ccc(-c2cc3cnc(NC4CCOCC4)nc3n(C)c2=O)c(Cl)c1 [Example 9]
			50 to 500 nM	> 5000 nM	50 to 500 nM	50 to 500 nM	CCn1c(=O)c(-c2ccc(-c3nccnc3C)cc2Cl)cc2cnc(NC3CCCOC3)nc21 (centres unmarked) [Example 17]
			500 to 5000 nM	> 5000 nM	500 to 5000 nM	500 to 5000 nM	CCn1c(=O)c(-c2ccc(-c3nccnc3C)cc2Cl)cc2cnc(NC3CCN(C)CC3)nc21 [Example 5]
			50 to 500 nM	> 5000 nM	50 to 500 nM	50 to 500 nM	CCn1c(=O)c(-c2ccc(-c3cncc(C)n3)cc2Cl)cc2cnc(NCCCC3CCN(C)CC3)nc21 [Example 68]
			< 50 nM	> 5000 nM	50 to 500 nM	< 50 nM	Cc1cncc(-c2ccc(-c3cc4cnc(N[C@@H]5CCOC5)nc4n(CCCN(C)C)c3=O)c(Cl)c2)n1 [Example 101]
			50 to 500 nM	> 5000 nM	500 to 5000 nM	50 to 500 nM	CCn1c(=O)c(-c2ccc(-c3nccnc3C)cc2Cl)cc2cnc(NC3CCCNC3)nc21 (centres unmarked) [Example 82]
			50 to 500 nM	> 5000 nM	50 to 500 nM	50 to 500 nM	CCn1c(=O)c(-c2ccc(-c3nccnc3C)cc2Cl)cc2cnc(NC3CCOC3)nc21 (centres unmarked) [Example 15]
			50 to 500 nM	> 5000 nM	50 to 500 nM	< 50 nM	CCn1c(=O)c(-c2ccc(-c3cncc(C)n3)cc2Cl)cc2cnc(NC3CNC(=O)C3)nc21 (centres unmarked) [Example 66]
			< 50 nM	> 5000 nM	< 50 nM	< 50 nM	Cc1nccnc1-c1ccc(-c2cc3cnc(NC4CCOCC4)nc3n(Cc3ccccc3C(F)(F)F)c2=O)c(Cl)c1 [Example 21]
			< 50 nM	> 5000 nM	50 to 500 nM	< 50 nM	CCn1c(=O)c(-c2ccc(-c3cncc(C)n3)cc2Cl)cc2cnc(NCCCOCCCN)nc21 [Example 129]
